According to patent publication US9540343B2 (Gilead Sciences, Inc., priority 2011, dated 2017):

Legend:
[1] = system: HIV-IIIb; test: Test A: Antiviral assay in MT4 cells; format: cell-based, HIV-1; settings: Human immunodeficiency virus 1, IIIB, MT4, 120 h, read-out: % inhibition at 2 μM, percent inhibition of virus-induced cell killing, from dose response curve at 2 uM drug; MT-4 cells infected with HIV-IIIb, 5 days, CellTiter-Glo
[2] = in vitro; settings: human, uninfected MT-4 cells, CC50 (nM), same protocol as Test A, CellTiter-Glo
Method in brief: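 Cytoprotection read-out: CellTiter-Glo chemiluminescence after 5 days at 37 °C of HIV-IIIb-infected MT-4 cells (m.o.i. 0.003) with compound in 10-point 3-fold dilutions, quadruplicate, 10% FBS. Cytotoxicity (CC50) measured identically without virus.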

| Compound | inhibition at 2 µM [1] [%] | CC50 at 5 days [2] [nM] |
| --- | --- | --- |
| NC(=O)c1cc(-c2cccnc2[C@H](Cc2cc(F)cc(F)c2)NC(=O)Cn2cc(C(F)(F)F)nc2CO)ccc1F [Example 437, (S)-5-(2-(2-(3,5-difluorophenyl)-1-(2-(2-(hydroxymethyl)-4-(trifluoromethyl)-1H-imidazol-1-yl)acetamido)ethyl)pyridin-3-yl)-2-fluorobenzamide] | 3 | > 53200 |
| O=C(Cn1nc(C(F)F)c2c1C(F)(F)C1CC21)N[C@@H](Cc1cc(F)cc(F)c1)c1ncccc1-c1ccc2nccn2c1 (stereo partly drawn) [Example 438, (S)—N-(1-(3-(imidazo[1,2-a]pyridine-6-yl)-pyridin-2-yl)-2-(3,5-difluorophenyl)ethyl)-2-(3-(difluoromethyl)-5,6-dihydro-4,5-(methano)-6,6-difluoro-cyclopenta[c]pyrazol-1(4H)-yl)acetamide] | 81 | 12100 |
| O=C(Cc1c[nH]c2ccc(F)cc12)N[C@@H](Cc1cc(F)cc(F)c1)c1ncccc1-c1cccnc1 [Example 439, (S)—N-(1-(3,3′-bipyridin-2-yl)-2-(3,5-difluorophenyl)ethyl)-2-(5-fluoro-1H-indol-3-yl)acetamide] | -2 | 21700 |
| Cn1cc(-c2cccnc2[C@H](Cc2cc(F)cc(F)c2)NC(=O)Cc2c[nH]c3ccc(F)cc23)cn1 [Example 440, (S)—N-(2-(3,5-difluorophenyl)-1-(3-(1-methyl-1H-pyrazol-4-yl)pyridin-2-yl)ethyl)-2-(5-fluoro-1H-indol-3-yl)acetamide] | 82 | 21700 |
| O=C(Cc1c[nH]c2ccc(F)cc12)N[C@@H](Cc1cc(F)cc(F)c1)c1ncccc1-c1ccc2nonc2c1 [Example 441, (S)—N-(1-(3-(benzo[c][1,2,5]oxadiazol-5-yl)pyridin-2-yl)-2-(3,5-difluorophenyl)ethyl)-2-(5-fluoro-1H-indol-3-yl)acetamide] | 35 | 8650 |
| O=C(Cn1nc(C(F)F)c2c1C(F)(F)C1CC21)N[C@@H](Cc1cc(F)cc(F)c1)c1ncccc1-c1cnc2c(c1)CCCN2 (stereo partly drawn) [Example 442, (S)—N-(1-(3-(5,6,7,8-tetrahydro-1,8-naphthyridin-3-yl)-pyridin-2-yl)-2-(3,5-difluorophenyl)ethyl)-2-(3-(difluoromethyl)-5,6-dihydro-4,5-(methano)-6,6-difluoro-cyclopenta[c]pyrazol-1(4H)-yl)acetamide] | 79 | 8880 |
| CS(=O)(=O)n1cc(CC(=O)N[C@@H](Cc2cc(F)cc(F)c2)c2ncccc2-c2ccc(F)c(C(N)=O)c2)c2cc(F)ccc21 [Example 444, (S)-5-(2-(2-(3,5-difluorophenyl)-1-(2-(5-fluoro-1-(methylsulfonyl)-1H-indol-3-yl)acetamido)ethyl)pyridin-3-yl)-2-fluorobenzamide] | 23 | 15500 |
| NC(=O)c1cc(-c2cccnc2[C@H](Cc2cc(F)cc(F)c2)NC(=O)Cc2c[nH]c3ccc(Br)cc23)ccc1F [Example 445, (S)-5-(2-(1-(2-(5-bromo-1H-indol-3-yl)acetamido)-2-(3,5-difluorophenyl)ethyl)pyridin-3-yl)-2-fluorobenzamide] | 114 | 10700 |
| NC(=O)c1cc(-c2cccnc2[C@H](Cc2cc(F)cc(F)c2)NC(=O)Cn2nc(C(F)(F)F)c3c2CCC(=O)C3)ccc1F [Example 446, (S)-5-(2-(2-(3,5-difluorophenyl)-1-(2-(5-oxo-3-(trifluoromethyl)-4,5,6,7-tetrahydro-1H-indazol-1-yl)acetamido)ethyl)pyridin-3-yl)-2-fluorobenzamide] | 79 | > 53200 |
| O=C(Cc1n[nH]c2ccccc12)NC(Cc1cc(F)cc(F)c1)c1nccnc1-c1ccc(Cl)cc1 (stereo not shown) [Example 447, N-(1-(3-(4-chlorophenyl)pyrazin-2-yl)-2-(3,5-difluorophenyl)ethyl)-2-(1H-indazol-3-yl)acetamide] | 0 | 13000 |
| NC(=O)c1cc(-c2cccnc2[C@H](Cc2cc(F)cc(F)c2)NC(=O)Cn2nc(C(F)(F)F)c3c2CCC(O)C3)ccc1F (stereo partly drawn) [Example 448, 5-(2-((1S)-2-(3,5-difluorophenyl)-1-(2-(5-hydroxy-3-(trifluoromethyl)-4,5,6,7-tetrahydro-1H-indazol-1-yl)acetamido)ethyl)pyridin-3-yl)-2-fluorobenzamide] | 103 | > 53200 |
| CC1(C)OB(c2cn(CC(=O)N[C@@H](Cc3cc(F)cc(F)c3)c3ncccc3-c3ccc(F)c(C(N)=O)c3)nc2C(F)(F)F)OC1(C)C [Example 451B, (S)-5-(2-(2-(3,5-difluorophenyl)-1-(2-(4-(4,4,5,5-tetramethyl-1,3,2-dioxaborolan-2-yl)-3-(trifluoromethyl)-1H-pyrazol-1-yl)acetamido)ethyl)pyridin-3-yl)-2-fluorobenzamide] | 1 | 37100 |
| COC(=O)c1nn(CC(=O)N[C@@H](Cc2cc(F)cc(F)c2)c2ncccc2-c2ccc(F)c(C(N)=O)c2)c2c1COC2 [Example 452C, (S)-methyl 1-(2-((1-(3-(3-carbamoyl-4-fluorophenyl)pyridin-2-yl)-2-(3,5-difluorophenyl)ethyl)amino)-2-oxoethyl)-4,6-dihydro-1H-furo[3,4-c]pyrazole-3-carboxylate] | 4 | 9070 |
| COC(=O)c1c2c(nn1CC(=O)N[C@@H](Cc1cc(F)cc(F)c1)c1ncccc1-c1ccc(F)c(C(N)=O)c1)COC2 [Example 453, (S)-methyl 2-(2-((1-(3-(3-carbamoyl-4-fluorophenyl)pyridin-2-yl)-2-(3,5-difluorophenyl)ethyl)amino)-2-oxoethyl)-4,6-dihydro-2H-furo[3,4-c]pyrazole-3-carboxylate] | 3 | > 53200 |
| COc1ccc2[nH]cc(CC(=O)NC(Cc3cc(F)cc(F)c3)c3nccnc3-c3ccc(Cl)cc3)c2n1 (stereo not shown) [Example 454, N-(1-(3-(4-chlorophenyl)pyrazin-2-yl)-2-(3,5-difluorophenyl)ethyl)-2-(5-methoxy-1H-pyrrolo[3,2-b]pyridin-3-yl)acetamide] | 1 | 11100 |
| NC(=O)c1cc(-c2cccnc2[C@H](Cc2cc(F)cc(F)c2)NC(=O)Cn2nc(C(=O)O)c3c2COC3)ccc1F [Example 456, (S)-1-(2-(1-(3-(3-carbamoyl-4-fluorophenyl)pyridin-2-yl)-2-(3,5-difluorophenyl)ethylamino)-2-oxoethyl)-4,6-dihydro-1H-furo[3,4-c]pyrazole-3-carboxylic acid] | 0 | > 53200 |
| NC(=O)c1cc(-c2cccnc2[C@H](Cc2cc(F)cc(F)c2)NC(=O)Cn2nc(C(F)(F)F)c3c2C2CC2C3O)ccc1F (stereo partly drawn) [Example 457, 5-(2-((1S)-2-(3,5-difluorophenyl)-1-(2-(4-hydroxy-3-(trifluoromethyl)-4,4-a,5,5a-tetrahydro-1H-cyclopropa[4,5]cyclopenta[1,2-c]pyrazol-1-yl)acetamido)ethyl)pyridin-3-yl)-2-fluorobenzamide] | 64 | > 53200 |
| O=C(Cc1c[nH]c2ccc(F)cc12)NC(Cc1cc(F)cc(F)c1)c1nccnc1-c1ccc(Cl)cc1 (stereo not shown) [Example 459, N-(1-(3-(4-chlorophenyl)pyrazin-2-yl)-2-(3,5-difluorophenyl)ethyl)-2-(5-fluoro-1H-indol-3-yl)acetamide] | 28 | 14200 |
| NC(=O)c1cc(-c2cccnc2[C@H](Cc2cc(F)cc(F)c2)NC(=O)Cn2cc(C3=CCCCC3)c(C(F)(F)F)n2)ccc1F [Example 460, (S)-5-(2-(1-(2-(4-cyclohexenyl-3-(trifluoromethyl)-1H-pyrazol-1-yl)acetamido)-2-(3,5-difluorophenyl)ethyl)pyridin-3-yl)-2-fluorobenzamide] | 0 | 8970 |
| CCc1cc(C(F)(F)F)nn1CC(=O)N[C@@H](Cc1cc(F)cc(F)c1)c1ncccc1-c1ccc(F)c(C(N)=O)c1 [Example 461, (S)-5-(2-(2-(3,5-difluorophenyl)-1-(2-(5-ethyl-3-(trifluoromethyl)-1H-pyrazol-1-yl)acetamido)ethyl)pyridin-3-yl)-2-fluorobenzamide] | 25 | 32000 |
| NC(=O)c1cc(-c2cccnc2[C@H](Cc2cc(F)cc(F)c2)NC(=O)Cn2cc(Br)c(C(F)(F)F)n2)ccc1F [Example 463, (S)-5-(2-(1-(2-(4-bromo-3-(trifluoromethyl)-1H-pyrazol-1-yl)acetamido)-2-(3,5-difluorophenyl)ethyl)pyridin-3-yl)-2-fluorobenzamide] | 11 | 14700 |
| CS(=O)(=O)c1ccc2[nH]cc(CC(=O)N[C@@H](Cc3cc(F)cc(F)c3)c3ncccc3-c3ccc(F)c(C(N)=O)c3)c2c1 [Example 464, (S)-5-(2-(2-(3,5-difluorophenyl)-1-(2-(5-(methylsulfonyl)-1H-indol-3-yl)acetamido)ethyl)pyridin-3-yl)-2-fluorobenzamide] | 119 | > 53200 |
| NC(=O)c1cc(-c2cccnc2[C@H](Cc2cc(F)cc(F)c2)NC(=O)Cn2nc(C(F)(F)F)c3c2C2CC2C3=O)ccc1F (stereo partly drawn) [Example 465B, 5-(2-((1S)-2-(3,5-difluorophenyl)-1-(2-(4-oxo-3-(trifluoromethyl)-4,4-a,5,5a-tetrahydro-1H-cyclopropa[4,5]cyclopenta[1,2-c]pyrazol-1-yl)acetamido)ethyl)pyridin-3-yl)-2-fluorobenzamide] | 3 | > 53200 |
